Legend:
rCuaA = target: T1, rCuaA (Ruminiclostridium cellulolyticum, UniProt B8I424); test: isothermal titration calorimetry; format: binding; conditions: 20 °C, 150 mM NaCl, 25 mM HEPES, pH 7.0
T1 construct: gene Ccel_2112; mature protein (lipoprotein signal peptide removed, putative cleavage at amino acid 22), N-terminal His6, pET22b(+), E. coli BL21(DE3)
Source text: isothermal titration calorimetry on rCuaA

rCuaD = target: T2, rCuaD (Ruminiclostridium cellulolyticum, UniProt B8I427); test: isothermal titration calorimetry; format: binding; conditions: 20 °C, 150 mM NaCl, 25 mM HEPES, pH 7.0
T2 construct: gene Ccel_2115; mature protein (lipoprotein signal peptide removed, putative cleavage at amino acid 20), N-terminal His6, pET22b(+), E. coli BL21(DE3)
Source text: isothermal titration calorimetry on rCuaD

T1 sequence (B8I424 entry or part of it): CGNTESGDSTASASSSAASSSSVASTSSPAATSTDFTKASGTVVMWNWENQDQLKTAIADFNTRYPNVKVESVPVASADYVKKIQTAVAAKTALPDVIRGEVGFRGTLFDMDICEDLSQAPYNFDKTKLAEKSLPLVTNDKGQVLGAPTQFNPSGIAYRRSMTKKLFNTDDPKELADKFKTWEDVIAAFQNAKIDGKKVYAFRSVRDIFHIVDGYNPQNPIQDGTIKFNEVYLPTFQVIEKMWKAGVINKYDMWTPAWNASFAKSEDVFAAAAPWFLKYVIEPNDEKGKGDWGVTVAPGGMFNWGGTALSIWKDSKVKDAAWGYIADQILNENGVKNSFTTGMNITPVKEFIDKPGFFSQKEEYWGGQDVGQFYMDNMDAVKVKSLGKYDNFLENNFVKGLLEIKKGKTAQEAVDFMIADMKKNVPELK
T2 sequence (B8I427 entry or part of it): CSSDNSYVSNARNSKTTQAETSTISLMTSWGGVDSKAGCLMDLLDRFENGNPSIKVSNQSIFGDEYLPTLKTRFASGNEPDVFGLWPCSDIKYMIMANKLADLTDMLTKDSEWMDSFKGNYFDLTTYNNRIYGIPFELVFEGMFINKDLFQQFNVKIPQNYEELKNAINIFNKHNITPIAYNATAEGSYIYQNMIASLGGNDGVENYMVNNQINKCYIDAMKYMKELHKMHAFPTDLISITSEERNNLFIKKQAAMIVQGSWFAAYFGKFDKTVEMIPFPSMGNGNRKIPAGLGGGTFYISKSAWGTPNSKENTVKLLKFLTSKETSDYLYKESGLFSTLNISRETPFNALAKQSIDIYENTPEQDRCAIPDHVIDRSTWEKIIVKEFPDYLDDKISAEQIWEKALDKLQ

Row | Kd (rCuaA) | Kd (rCuaD) | SMILES
1 | 0.24 ± 0.02 µM | 0.023 ± 0.003 µM | OC[C@H]1O[C@@H](O[C@H]2[C@H](O)[C@@H](O)C(O)O[C@@H]2CO)[C@H](O)[C@@H](O)[C@@H]1O (some centres unmarked) [G2, cellobiose]
2 | 0.405 ± 0.11 µM | – | OC[C@H]1O[C@@H](O[C@H]2[C@H](O)[C@@H](O)[C@H](O[C@H]3[C@H](O)[C@@H](O)C(O)O[C@@H]3CO)O[C@@H]2CO)[C@H](O)[C@@H](O)[C@@H]1O (some centres unmarked) [G3, cellotriose]
3 | 0.644 ± 0.058 µM | – | OC[C@H]1O[C@@H](O[C@H]2[C@H](O)[C@@H](O)[C@H](O[C@H]3[C@H](O)[C@@H](O)[C@H](O[C@H]4[C@H](O)[C@@H](O)C(O)O[C@@H]4CO)O[C@@H]3CO)O[C@@H]2CO)[C@H](O)[C@@H](O)[C@@H]1O (some centres unmarked) [G4, cellotetraose]
4 | 1.86 ± 0.13 µM | – | OC[C@H]1O[C@@H](O[C@H]2[C@H](O)[C@@H](O)[C@H](O[C@H]3[C@H](O)[C@@H](O)[C@H](O[C@H]4[C@H](O)[C@@H](O)[C@H](O[C@H]5[C@H](O)[C@@H](O)C(O)O[C@@H]5CO)O[C@@H]4CO)O[C@@H]3CO)O[C@@H]2CO)[C@H](O)[C@@H](O)[C@@H]1O (some centres unmarked) [G5, cellopentaose]
